Several values for one entry are separate records, joined by “and”; a condition that tells them apart may be missing. Equal entries are not always repeated. Where two headings read alike, the source gives them in different places.
Test system: L. major lysate proteins
Assay: Multitargeted bead mixture chemoproteomics, single concentration competition, proteome-wide
Assay type: binding
Conditions: for fold change / fold change relative to vehicle control: vehicle control = 1; for fold change relative to vehicle control: competition with free ligand

Structure (SMILES): Nc1nc2cccc(-c3ccccc3)c2n1Cc1ccc(Cl)c(Cl)c1 [compound 3]
- fold change vs vehicle control: 1.02 and 1.09 and 1
- fold change (LINJ.05.0500 ATPASE ALPHA SUBUNIT): 1.08
- fold change (LINJ.36.4570 […] SUBUNIT): 0.83
- fold change (LMJF.10.0510 GLYCEROL-3-PHOSPHATE DEH[…] ], GLYCOSOMAL): 0.91
- fold change (LMJF.16.1610 PROHIBITIN): 1.25
- fold change (LMJF.18.1370 HEAT SHOCK PROTEIN, PUTATIVE): 1.16
- fold change (LMJF.19.0300 RNA BINDING PROTEIN, PUTATIVE): 0.91
- fold change (LMJF.21.0760 […]-ATP-ASE SUBUNIT 5, PUTATIVE): 0.77
- fold change (LMJF.22.0410 HY[…], CONSERVED): 0.97
- fold change (LMJF.25.1770 ENOYL-COA REDUCTASE, PUTATIVE): 1.06
- fold change (LMJF.26.0300 AMINOPEPTIDASE-LIKE PROTEIN): 0.7
- fold change (LMJF.26.2560 HY[…], CONSERVED): 1.1
- fold change (LMJF.27.1810 GLYCOSOMAL PHOSPHOENOLPYRUVATE CARBOXYKINASE, PUTATIVE): 1.1
- fold change (LMJF.28.0490 PROPIONYL-COA C[…] CHAIN, PUTATIVE): 0.63
- fold change (LMJF.29.0940 HY[…], CONSERVED): 1.08
- fold change (LMJF.29.1310 CARNITINE/CHOLINE ACETYLTRANSFERASE, PUTATIVE): 0.86
- fold change (LMJF.29.1470 HY[…], CONSERVED): 0.86
- fold change (LMJF.29.2440 HY[…], CONSERVED): 1.01
- fold change (LMJF.30.2350 SPHINGOSINE 1-PHOSPHATE LYASE): 1.2
- fold change (LMJF.30.2970 GLYCERALDEHYDE 3-PHOSPHATE DEHYDROGENASE, GLYCOSOMAL): 1.09
- fold change (LMJF.30.3390 CAS/CSE/IMPORTIN DOMAIN PROTEIN, PUTATIVE): 0.98
- fold change (LMJF.31.2650 ACETOIN DEHYDROGENASE E3 COMPONENT-LIKE PROTEIN): 0.96
- fold change (LMJF.31.2970 ACETYL-COA CARBOXYLASE, PUTATIVE): 0.89
- fold change (LMJF.33.1030 HY[…], CONSERVED): 0.88
- fold change (LMJF.35.5040 polyadenylate-binding protein 1): 0.88
- fold change (LMJF.35.5250 ALPHA-1,2-MANNOSYLTRANSFERASE, PUTATIVE): 0.83
- fold change (LMJF.36.5100 HY[…], CONSERVED): 1.03
- fold change (LMJF.[…] RIBOSOMAL PROTEIN S7, PUTATIVE): 1.35
- fold change vs vehicle control (protein LINJ.03.0940 HY[…], CONSERVED): 1.07
- fold change vs vehicle control (protein LINJ.09.0030 HY[…], CONSERVED): 0.7
- fold change relative to vehicle control (protein LINJ.11.0780 40S RIBOSOMAL PROTEIN S21, PUTATIVE): 1.32
- fold change (protein LINJ.13.0990 […] SUBUNIT 2, PUTATIVE): 0.91
- fold change vs vehicle control (protein LINJ.13.1460 ALPHA TUBULIN): 0.98
- fold change (protein LINJ.15.0090 HEAT SHOCK PROTEIN HSLVU, ATPASE SUBUNIT HSLU, PUTATIVE): 0.88
- fold change relative to vehicle control (protein LINJ.16.1380 […], PUTATIVE): 0.96
- fold change vs vehicle control (protein LINJ.19.0300 RNA BINDING PROTEIN): 1.22
- fold change (protein LINJ.20.0630 CYTIDINE TR[…], PUTATIVE): 1.05
- fold change relative to vehicle control (protein LINJ.20.1390 COATOMER BETA SUBUNIT, PUTATIVE): 0.93
- fold change vs vehicle control (protein LINJ.21.1310 40S RIBOSOMAL PROTEIN S23, PUTATIVE): 1.16
- fold change vs vehicle control (protein LINJ.23.1680 HY[…], CONSERVED): 1.1
- fold change vs vehicle control (protein LINJ.25.1170 […] OXIDASE VII, PUTATIVE): 1.01
- fold change relative to vehicle control (protein LINJ.25.1220 RIBOSOMAL PROTEIN S25): 1.27
- fold change vs vehicle control (protein LINJ.26.1080 HY[…], CONSERVED): 1.08
- fold change vs vehicle control (protein LINJ.27.1140 HY[…], CONSERVED): 1.02
- fold change vs vehicle control (protein LINJ.28.1100 RIBOSOMAL PROTEIN S20, PUTATIVE): 0.97
- fold change relative to vehicle control (protein LINJ.28.1940 R[…] A, 51KDA SUBUNIT, PUTATIVE): 1.1
- fold change (protein LINJ.31.2350 ADP-RI[…], PUTATIVE): 1.09
- fold change vs vehicle control (protein LINJ.34.0670 […]-ATP-ASE SUBUNIT 11, PUTATIVE): 0.75
- fold change (protein LINJ.35.0410 40S RIBOSOMAL PROTEIN S3A, PUTATIVE): 1.1
- fold change relative to vehicle control (protein LINJ.35.0780 CBS DOMAIN PROTEIN, CONSERVED): 1.01
- fold change vs vehicle control (protein LINJ.36.0510 HY[…], CONSERVED): 0.99
- fold change vs vehicle control (protein LINJ.36.3940 40S RIBOSOMAL PROTEIN S27-1, PUTATIVE): 0.88
- fold change (protein LINJ.36.4180 HS1VU COMPLEX P[…]-LIKE): 0.87

From article PMC6199744, “Development of Chemical Proteomics for the Folateome and Analysis of the Kinetoplastid Folateome” (ACS Infectious Diseases, 2018)
